Target: T1, human glycine transporter-2 (GlyT2) (Homo sapiens, UniProt Q9Y345)
T1 construct: The entire coding region of the human GlyT2 cDNA was cloned into the mammalian expression vector pClNeo; expressed in transfected cells; host or cells: Cos-7 cells (African green monkey kidney, ATCC), stably transfected, G418-selected; vector pClNeo
T1 sequence (Q9Y345 1-797): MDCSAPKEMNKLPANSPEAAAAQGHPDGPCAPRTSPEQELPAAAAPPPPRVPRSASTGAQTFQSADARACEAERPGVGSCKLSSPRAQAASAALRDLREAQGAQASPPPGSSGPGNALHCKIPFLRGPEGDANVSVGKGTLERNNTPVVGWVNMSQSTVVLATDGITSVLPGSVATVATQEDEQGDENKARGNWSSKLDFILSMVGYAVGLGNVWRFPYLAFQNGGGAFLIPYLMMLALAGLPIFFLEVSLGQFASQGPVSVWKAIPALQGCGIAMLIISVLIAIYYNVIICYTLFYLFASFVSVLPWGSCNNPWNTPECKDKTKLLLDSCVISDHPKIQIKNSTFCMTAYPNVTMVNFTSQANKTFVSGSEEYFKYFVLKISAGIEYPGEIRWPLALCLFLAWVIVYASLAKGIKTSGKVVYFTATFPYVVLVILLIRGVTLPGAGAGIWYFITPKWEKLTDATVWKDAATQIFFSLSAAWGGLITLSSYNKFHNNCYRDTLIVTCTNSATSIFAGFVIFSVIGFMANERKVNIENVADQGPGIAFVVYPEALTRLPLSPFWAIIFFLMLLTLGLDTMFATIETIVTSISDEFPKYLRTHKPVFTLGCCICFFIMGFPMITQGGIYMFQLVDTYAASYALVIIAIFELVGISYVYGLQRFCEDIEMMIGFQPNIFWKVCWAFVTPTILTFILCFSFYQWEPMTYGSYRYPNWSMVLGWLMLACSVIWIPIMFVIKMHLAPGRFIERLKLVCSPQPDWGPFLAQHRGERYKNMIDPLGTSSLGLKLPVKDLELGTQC
Assay: Inhibition of [14C]-glycine uptake in COS-7 cells transfected with human GlyT2
Type: cell-based
Conditions: Table 2, 20 μM, 2 h at 37° C., Cos-7 cells stably transfected with human GlyT2
Protocol: GlyT2 antagonist activity of representative compounds of the invention was determined in accordance with the assay described in the Examples and by measuring the ability of compounds to inhibit the uptake of [^14C]-glycine in COS-7 cells transfected with the human glycine transporter-2 (GlyT2). The GlyT2 antagonist activities of these representative compounds are set forth hereinafter in Table 1.
Cos-7 cells (African green monkey, kidney) from American Type Culture Collection were grown in DMEM supplemented with 10% fetal bovine serum. The entire coding region of the human GlyT2 cDNA was cloned into the mammalian expression vector pClNeo, and then stably transfected into Cos-7 cells. Transfection was performed essentially as described by T. W. Lovenberg et al. (Mol. Pharmacol. 1999, 55:1101–1107): Briefly, cells were grown to 70–80% confluence, removed from the plate with trypsin, and pelleted in a clinical centrifuge. The pellet was resuspended in 400 μL complete medium and transferred to an electroporation cuvette with a 0.4 cm gap between the electrodes (Bio-Rad, 165–2088). One microgram of supercoiled GlyT2 cDNA was added to the cells, and the suspension was mixed. The voltage for the electroporation was set at 0.25 kV, and the capacitance was set at 960 μF. After electroporation, the cuvette contents were diluted to 10 mL with complete medium, and 0.5 mL, 1.0 mL, 2.0 mL and remainder (˜6.5 mL) portions were plated onto four 10-cm dishes. The cells were incubated 24 h before adding 600 μg/mL G418. Colonies that survived selection were isolated and tested for GlyT2 expression.
The day before the assay, the GlyT2 expressing cells were plated into 96-well scintillating microplates (Amersham, RPNQ 0160) at a density of approximately 20,000 cells per well. Cells were grown overnight at 37° C. in 5% CO2 and then washed once with 37° C. HEPES buffered saline (HBS: 150 mM NaCl, 20 mM HEPES, 1 mM CaCl2, 10 mM glucose, 5 mM KCl, 1 mM MgCl2; pH 7.4). Eighty microliters of 37° C. HBS was subsequently added to each well. Test solutions of GlyT2 inhibitors were prepared in HBS from DMSO stock solutions, and 5 μL of test solution was added to each test well. Total transport and non-specific background were determined by adding 5 μL HBS or 5 μL 2 M glycine, respectively, to the appropriate control wells. Plates were then left at rt for 5 min before the addition of 20 μL of 100 μM ^14C-glycine (NEN, NEC 048H) to each well for a final concentration of 20 μM. Plates were incubated for 2 h at 37° C. with 5% CO2. After 2 h the reaction mixtures were removed by aspiration, and the plates were washed once with ice-cold HBS. Plates were sealed with TopSeal (Packard, 6005185) and counted on a Packard TopCount® scintillation counter.

Compound | IC50 [µM]
O=C(Nc1cccc(Oc2ccccc2)c1)N[C@@H](Cc1ccccc1)C(=O)NCCCN1CCCC1 [Example 122, (S)-2-[3-(3-Phenoxy-phenyl)-ureido]-3-phenyl-N-(3-pyrrolidin-1-yl-propyl)-propionamide] | 0.44
O=C(Nc1ccc(-c2ccccc2)cc1)N[C@@H](Cc1cccnc1)C(=O)NCCCN1CCCC1 [Example 142, (S)-2-(3-Biphenyl-4-yl-ureido)-3-pyridin-3-yl-N-(3-pyrrolidin-1-yl-propyl)-propionamide] | 0.685
O=C(Nc1ccc(-c2ccccc2)cc1)NC(C(=O)NCCN1CCCC1)(c1ccccc1)c1ccccc1 [Example 143, 2-(3-Biphenyl-4-yl-ureido)-2,2-diphenyl-N-(2-pyrrolidin-1-yl-ethyl)-acetamide] | 8
CC(C)[C@@H](CC(=O)NCCN(C(C)C)C(C)C)NC(=O)Nc1ccc(-c2ccccc2)cc1 [Example 146, (R)-3-(3-Biphenyl-4-yl-ureido)-4-methyl-pentanoic Acid (2-diisopropylamino-ethyl)-amide] | 0.595
O=C(Nc1cccc(-c2ccccc2)c1)N[C@@H](Cc1ccccc1)C(=O)NCCCN1CCCC1 [Example 150, (S)-2-(3-Biphenyl-3-yl-ureido)-3-phenyl-N-(3-pyrrolidin-1-yl-propyl)-propionamide] | 0.998
NCCCNC(=O)/C=C/[C@H](Cc1ccccc1)NC(=O)Nc1ccc(-c2ccccc2)cc1 [Example 152, (E)-(S)-4-(3-Biphenyl-4-yl-ureido)-5-phenyl-pent-2-enoic Acid (3-amino-propyl)-amide] | 3.16
O=C(Nc1ccc(Oc2ccccc2)cc1)N[C@H](CNCCN1CCCC1)Cc1ccccc1 [Example 157, 1-[(S)-1-Benzyl-2-(2-pyrrolidin-1-yl-ethylamino)-ethyl]-3-(4-phenoxy-phenyl)-urea] | 0.181
O=C(Nc1ccc(-c2ccccc2)cc1)N[C@@H](CCCNCCN1CCCC1)Cc1ccccc1 [Example 158, 1-[(S)-1-Benzyl-4-(2-pyrrolidin-1-yl-ethylamino)-butyl]-3-biphenyl-4-yl-urea] | 0.34

Reference: patent publication US7202269B2, “GlyT2 modulators” (Janssen Pharmaceutica N.V., priority 2003, dated 2007)
